Here are results for eight compounds from article PMC10298284, “Synthesis and hLDH Inhibitory Activity of Analogues to Natural Products with 2,8-Dioxabicyclo[3.3.1]nonane Scaffold” (International Journal of Molecular Sciences, 2023).

Several values for one entry are separate records, joined by “and”; a condition that tells them apart may be missing. Equal entries are not always repeated. Where two headings read alike, the source gives them in different places. Bounds are passed on as bounds.

The target of series [1] is T1, recombinant human LDHB (Homo sapiens, UniProt P07195).
T1 construct: purchased Abcam
T1 sequence (P07195 whole entry): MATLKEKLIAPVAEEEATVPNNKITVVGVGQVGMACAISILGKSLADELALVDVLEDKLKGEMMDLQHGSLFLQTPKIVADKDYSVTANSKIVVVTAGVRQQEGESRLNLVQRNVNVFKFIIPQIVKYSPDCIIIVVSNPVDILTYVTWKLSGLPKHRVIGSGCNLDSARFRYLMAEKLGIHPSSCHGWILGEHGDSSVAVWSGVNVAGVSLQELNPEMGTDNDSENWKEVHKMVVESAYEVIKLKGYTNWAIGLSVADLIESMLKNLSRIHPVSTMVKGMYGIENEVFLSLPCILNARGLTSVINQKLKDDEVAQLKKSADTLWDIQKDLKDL
The series can be described thus: hLDHB enzymatic activity assay (same fluorimetric protocol). Particulars: mean ± SD of n = 3 replicates; read-out: hLDHB IC50. The class given is biochemical. As to the method:
(§1) Briefly, the decrease in the coenzyme β-NADH fluorescence (λemission = 460 nm) was measured for 10 min, at different concentration of inhibitors, and its slope was compared with the one obtained when there were not inhibitors added (100% enzymatic activity).
The ability of the synthesized compounds to inhibit the hLDHB enzyme was measured using recombinant human LDHB (95%, specific activity >300 units/mg and concentration of 1.0 mg/mL, Abcam, Cambridge, UK) following the same fluorimetric protocol described in Section 3.4.

Series [2] concerns the target T2, recombinant human LDHA (Homo sapiens, UniProt P00338).
T2 construct: purchased Abcam
The series can be described thus: hLDHA enzymatic activity assay (kinetic spectrofluorimetric, β-NADH fluorescence decrease). The format is biochemical. As to conditions: for IC50: mean ± SD of n = 3 replicates; for Selectivity Rate (IC50 hLDHB/hLDHA): ratio IC50 hLDHB / IC50 hLDHA. Here is the method:
as §1
The enzymatic assay was conducted on 96-well microplates and the decrease in the β-NADH fluorescence (λexcitation = 340 nm; λemission = 460 nm) was detected in a TECAN Infinite 200 Pro M Plex fluorescent plate reader (Tecan Instrument, Inc.) at 28 °C. The activity was determined according to our previously described protocol. The final volume in each well was set to 200 µL using 100 mM potassium phosphate buffer, 0.041 units/mL LDHA, 155 µM β-NADH, 1 mM pyruvate (saturated conditions), and DMSO solutions (5%, v/v) of pure compounds at concentrations in the range of 1–600 µM. The addition of pyruvate allowed the beginning of the reaction and fluorescence was registered every 60 s during 10 min. A lineal time interval was selected to calculate the slope at every single concentration. […] The slope obtained at each concentration was compared to the one obtained for the 100% enzymatic activity control to determine the corresponding enzymatic activity. A nonlinear regression analysis in GraphPad Prism version 9.00 for Windows (GraphPad Software, La Jolla, CA, USA) was used for dose response curve, fitting of logarithm of inhibitor concentration vs. normalized enzymatic activity, to calculate IC50 values (Supplementary Material section). All measurements were made in triplicate and data were expressed as the mean ± SD.

Setting [3] is: 1 mM pyruvate, 155 µM β-NADH, pH 7.3, 28 °C, read-out: hLDHA IC50.
Where [4] appears, read: supplementary dose response curves, µM only on the axis label, read-out: IC50 (hLDHA inhibition curve).

Turning to `COc1ccc(C23CC(c4ccccc4O2)c2c(O)cc(O)cc2O3)cc1OC` (racemic) [(±)-42, 2-(3′,4′-Dimethoxyphenyl)-chromane-(4→4″, 2→O-5″)-phloroglucinol], the melting point (as a rule, the temperature of the solid-liquid transition) is 77 to 80 °C (dec.). Moreover, the IC50 (usually the midpoint of a concentration-inhibition curve) in series [1] worked out at 293.1 ± 2.4 µM. Further, the half-inhibitory concentration (IC50) in series [2] (setting [3]) stood at 154 ± 11.3 µM. The “Selectivity Rate (IC50 hLDHB/hLDHA)” value in series [2] was 1.9. For the same compound, the IC50 in series [2] (setting [4]) was 154 ± 11.3 µM.
`COc1ccc(C23CC(c4cc([N+](=O)[O-])ccc4O2)c2c(O)cc(O)cc2O3)cc1OC` (racemic) [(±)-43, 2-(3′,4′-Dimethoxyphenyl)-6-nitrochromane-(4→4″, 2→O-5″)-phloroglucinol] returned a melting point of 193 to 195 °C. In addition, the IC50 in series [1] came out at 65.3 ± 2.1 µM. In series [2] (setting [3]), the half-maximal inhibitory concentration (IC50) is < 10 µM and 8.2 µM. In addition, the “Selectivity Rate (IC50 hLDHB/hLDHA)” value in series [2] is reported as 8.0. Moreover, the half-inhibitory concentration (IC50) in series [2] (setting [4]) came to 8.2 ± 0.2 µM.
On to `O=c1oc2ccccc2c2c1C1CC(c3ccc(O)c(O)c3)(Oc3ccc(Cl)cc31)O2` (racemic) [(±)-47, 2-(3′,4′-Dihydroxyphenyl)-6-chlorochromane-(4→3″, 2→O-4″)-4″-hydroxycoumarin], for which the melting point is 98 to 100 °C (dec.). Further, in series [1], the IC50 came out at 14.3 ± 0.9 µM. The half-inhibitory concentration (IC50) in series [2] (setting [3]) is < 10 µM and 9.1 µM. Moreover, the “Selectivity Rate (IC50 hLDHB/hLDHA)” value in series [2] was determined as 1.6. Also, the IC50 in series [2] (setting [4]) amounted to 9.1 ± 0.5 µM.
`COc1ccc(C23CC(c4cc([N+](=O)[O-])ccc4O2)c2c(c4ccccc4oc2=O)O3)cc1OC` (racemic) [(±)-49, 2-(3′,4′-Dimethoxyphenyl)-6-nitrochromane-(4→3″, 2→O-4″)-4″-hydroxycoumarin] registered a melting point of 142 to 144 °C. The 50% inhibitory concentration (IC50) in series [1] worked out at 212.3 ± 1.4 µM. Further, in series [2] (setting [3]), the 50% inhibitory concentration (IC50) was 25.7 ± 0.3 µM. Moreover, the “Selectivity Rate (IC50 hLDHB/hLDHA)” value in series [2] is given as 8.3. Moreover, the half-inhibitory concentration (IC50) in series [2] (setting [4]) turned out to be 25.7 ± 0.3 µM.
`COc1ccc(C23CC(c4cc(Cl)ccc4O2)c2c(c4ccccc4oc2=O)O3)cc1OC` (racemic) [(±)-50, 2-(3′,4′-Dimethoxyphenyl)-6-chlorochromane-(4→3″, 2→O-4″)-4″-hydroxycoumarin]: the melting point lay in the range of 130 to 133 °C. Further, the IC50 in series [1] was greater than 300 µM. In addition, the half-inhibitory concentration (IC50) in series [2] (setting [3]) worked out at 13.2 ± 0.8 µM. Further, the “Selectivity Rate (IC50 hLDHB/hLDHA)” value in series [2] is on record as greater than 22.7. Further, the “Selectivity Rate (IC50 hLDHB/hLDHA)” value in series [2] (listed as 50) was greater than 10. In addition, the IC50 in series [2] (setting [4]) was found to be 13.2 ± 0.8 µM.
As to `O=C1C2=C(C(=O)c3ccccc31)C1CC(c3ccc(O)c(O)c3)(O2)Oc2ccc([N+](=O)[O-])cc21` (racemic) [(±)-55, 2-(3′.4′-Dihydroxyphenyl)-6-nitrochromane-(4→3″, 2→O-2″)-2″-hydroxy-1″,4″-naphthoquinone], the melting point lay within 247 to 250 °C. Further, the IC50 in series [2] (setting [3]) is 27.4 ± 0.6 µM. The “Selectivity Rate (IC50 hLDHB/hLDHA)” value in series [2] turned out to be 1.1. Also, the IC50 in series [2] (setting [4]) turned out to be 27.4 ± 0.6 µM.
Take `O=C1C2=C(C(=O)c3ccccc31)C1CC(c3ccc(O)c(O)c3)(O2)Oc2ccc(Cl)cc21` (racemic) [(±)-56, 2-(3′,4′-Dihydroxyphenyl)-6-chlorochromane-(4→3″, 2→O-2″)-2″-hydroxy-1″,4″-naphthoquinone]: the melting point was 300 to 302 °C (dec.). Besides, in series [1], the IC50 turned out to be 119 ± 2.7 µM. In series [2] (setting [3]), the IC50 amounted to 13.7 ± 0.6 µM. In addition, the “Selectivity Rate (IC50 hLDHB/hLDHA)” value in series [2] amounted to 8.7. Besides, in series [2] (setting [4]), the half-maximal inhibitory concentration (IC50) came out at 13.7 ± 0.6 µM.
For the compound `COc1ccc(C2CC3=C(C(=O)O2)C2CC(c4ccc(OC)c(OC)c4)(O3)Oc3ccccc32)cc1` (racemic) [(±)-64a, 2-(3′,4′-Dimethoxyphenyl)-chromane-(4→3″, 2→O-4″)-4″-hydroxy-6″-(4‴-methoxyphenyl)-5″,6″-dihydro-2H-pyran-2″-one], the melting point is 172 to 175 °C. The IC50 in series [1] was greater than 300 µM. In addition, the IC50 in series [2] (setting [3]) came out at 52.8 ± 5.3 µM. The “Selectivity Rate (IC50 hLDHB/hLDHA)” value in series [2] is given as greater than 5.7. Moreover, the IC50 in series [2] (setting [4]) was found to be 52.8 ± 5.3 µM.
